Assay results published in US8114850B2, “Antiproliferative activity of G-rich oligonucleotides and method of using same to bind to nucleolin” (Advanced Cancer Therapeutics, LLC, priority 1999, dated 2012).

Experiments:
HeLa cells = assay: MTT cell growth assay, HeLa cells; type: cell-based, human; details: 15 uM on day 1, half the initial dose on days 2-4; 3′-propylamino oligonucleotides; vs water control; FIG. 1C
Procedure: (§1) Cells were plated at low density ([…] cells per well, depending on cell line) in the appropriate serum-supplemented medium in 96-well plates (one plate per MTT assay time point) and grown under standard conditions of cell culture. The following day (day 1) oligonucleotide, or water as control, was added to the culture medium to give a final concentration of 15 uM. Further oligonucleotide, equivalent to half the initial dose, was added to the culture medium on days two, three and four.
(§2) Cells were assayed using the MTT assay (Morgan (1998) Methods. Mol. Biol. 79, 179-183) on days one, three, five, seven and nine after plating. The culture medium was not changed throughout the duration of the experiment (which was the time required for untreated cells to grow to confluence). Experiments were performed in triplicate and bars represent the standard error of the data.

DU145 cells = assay: MTT cell growth assay, DU145 cells; type: cell-based, human; details: 15 uM on day 1, half the initial dose on days 2-4; 3′-propylamino oligonucleotides; vs water control; FIG. 1A
Procedure: as §1, §2

MCF-7 cells = assay: MTT cell growth assay, MCF-7 cells; type: cell-based, human; details: 15 uM on day 1, half the initial dose on days 2-4; 3′-propylamino oligonucleotides; vs water control; FIG. 1D
Procedure: as §1, §2

[1] = target: T1, GRO-binding protein/nucleolin (HeLa nuclear extracts) (Homo sapiens, UniProt P19338); assay: EMSA of 32P-labeled oligonucleotides with HeLa nuclear extracts; details: 32P-labeled oligonucleotide, FIG. 6A
T1 construct: HeLa nuclear extracts used in EMSAs were purchased from Promega Inc. (bandshift grade); host or cells: HeLa nuclear extract (bandshift grade), purchased
Procedure: Oligonucleotides were 5′-labeled with 32p using T4 kinase. Labeled oligonucleotide (final concentration 1 nM, approximately 50,000 cpm) was preincubated for thirty minutes at 37° C. either alone or in the presence of unlabeled competitor oligonucleotide. Nuclear extracts were added, and the sample was incubated a further thirty minutes at 37° C. Both the preincubation and binding reactions were carried out in Buffer A (20 mM Tris. HCl pH 7.4, 140 mM KCl, 2.5 mM MgCl2, 1 mM dithiothreitol, 0.2 mM phenylmethyl sulfonyl fluoride and 8% (v/v) glycerol). Electrophoresis was carried out using 5% polyacrylamide gels in TBE buffer (90 mM Tris borate, 2 mM EDTA).
HeLa nuclear extracts used in EMSAs were purchased from Promega Inc. (bandshift grade). Nuclear and cytoplasmic extracts from MDA-MB-231 cells were prepared using the protocol described in F. M. Ausubel et al. Ausubel et al. (Eds.) (1996) Current Protocols in Molecular Biology, Wiley, N.Y., Section 12.1. Plasma membrane proteins were prepared from MDA-MB-231 cells using a method previously described. Yao et al. (1996) Biochemical Pharmacology 51, 431-436; Naito et al. (1988) J. Biol. Chem. 263, 11887-11891.
To investigate further the mechanism of the growth modulatory effects, binding of the oligonucleotides to cellular proteins was examined. […]

[2] = system: MDA-MB-231 breast cancer cells; assay: MTT cell growth assay, MDA-MB-231 cells; type: cell-based, human; details: for growth of MDA-MB-231 cells (MTT): 15 uM on day 1, half the initial dose on days 2-4, 3′-propylamino oligonucleotides, vs water control, FIG. 1B
Procedure: Cells were plated at low density ([…] cells per well, depending on cell line) in the appropriate serum-supplemented medium in 96-well plates (one plate per MTT assay time point) and grown under standard conditions of cell culture. The following day (day 1) oligonucleotide, or water as control, was added to the culture medium to give a final concentration of 15 uM. Further oligonucleotide, equivalent to half the initial dose, was added to the culture medium on days two, three and four. Cells were assayed using the MTT assay (Morgan (1998) Methods. Mol. Biol. 79, 179-183) on days one, three, five, seven and nine after plating. The culture medium was not changed throughout the duration of the experiment (which was the time required for untreated cells to grow to confluence). Experiments were performed in triplicate and bars represent the standard error of the data. For the experiment shown in FIG. 7A, MDA-MB-231 breast cancer cells (5×10^2 cells per well) were plated in a 96-well plate. After twenty-four hours, a single dose of oligonucleotide, or equal volume of PBS as a control, was added to the culture medium to a final concentration of 10 uM. Viable cells were assessed seven days after plating using the MTT assay. For the experiment using 3′-unmodified oligonucleotides (FIG. 7D), serum-supplemented medium was replaced by serum-free medium containing oligonucleotide (or serum-free medium alone in control wells). After incubation at 37° C. for four hours, fetal calf serum (Life Technologies, Inc.) was added to the medium to give 10% v/v.

[3] = target: T1, GRO-binding protein/nucleolin (HeLa nuclear extracts); assay: UV cross-linking of oligonucleotides to HeLa nuclear extracts; details: labeled oligonucleotide with HeLa nuclear extracts; FIG. 6C
Procedure: For the UV crosslinking experiments, samples were incubated as described above (EMSA). They were then placed on ice and irradiated at 5 cm from the source using the “autocross link” function of a Stratagene UV Stratalinker. Following irradiation, samples were electrophoresed under denaturing conditions on a 8% polyacrylamide-SDS gel using a standard Tris glycine buffer and visualized by autoradiography.
To determine the approximate molecular weight of the protein involved in complex A, and to confirm that competition for this complex results from direct binding of the protein to oligonucleotides, a UV cross-linking study was conducted. 5′-Labeled oligonucleotides and HeLa nuclear extracts were incubated alone or in the presence of unlabeled competitor oligonucleotides.
The samples were then irradiated with UV light resulting in cross-link formation between protein residues and thymidines in the oligonucleotide. The protein was thus radiolabeled and could be detected on a SDS-polyacrylamide gel.

T1 sequence (P19338 whole entry): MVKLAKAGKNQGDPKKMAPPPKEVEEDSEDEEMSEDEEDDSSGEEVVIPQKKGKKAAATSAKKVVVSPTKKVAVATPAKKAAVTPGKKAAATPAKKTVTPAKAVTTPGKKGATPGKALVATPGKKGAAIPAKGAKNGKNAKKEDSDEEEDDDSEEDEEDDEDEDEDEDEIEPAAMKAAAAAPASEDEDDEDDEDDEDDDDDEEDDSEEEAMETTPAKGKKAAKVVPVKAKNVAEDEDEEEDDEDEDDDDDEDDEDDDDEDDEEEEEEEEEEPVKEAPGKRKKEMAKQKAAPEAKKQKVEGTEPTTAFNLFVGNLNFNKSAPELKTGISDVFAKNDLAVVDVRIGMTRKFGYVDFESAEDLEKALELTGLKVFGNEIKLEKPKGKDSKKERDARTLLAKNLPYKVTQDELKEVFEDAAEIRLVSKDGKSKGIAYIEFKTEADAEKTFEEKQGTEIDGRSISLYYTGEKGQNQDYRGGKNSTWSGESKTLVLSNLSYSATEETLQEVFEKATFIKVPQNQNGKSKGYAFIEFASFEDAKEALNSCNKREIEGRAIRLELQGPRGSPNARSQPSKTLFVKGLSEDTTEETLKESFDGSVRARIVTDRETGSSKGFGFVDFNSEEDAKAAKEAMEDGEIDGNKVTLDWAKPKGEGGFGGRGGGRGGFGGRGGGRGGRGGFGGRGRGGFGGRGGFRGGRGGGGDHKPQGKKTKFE

Substance | growth of HeLa cells (MTT) (HeLa cells) | growth of DU145 cells (MTT) (DU145 cells) | growth of MCF-7 cells (MTT) (MCF-7 cells) | protein-oligonucleotide complex band (EMSA) [1] | growth of MDA-MB-231 cells (MTT) [2] | UV cross-linked protein complex (approximately 100 kDa) [3] | antiproliferative activity, MDA-MB-231 ([2]; single 10 uM dose, FIG. 7A)
5′-GTTGTTTGG GGTGGT-3′ (GTTGTTTGGGGTGGT; DNA, backbone not given here; further chemistry not fully specified) [GRO15A] | modulated proliferation | modulated proliferation | modulated proliferation | intense | modulated proliferation | crosslinked to a protein | –
5′-TTTGGTGGTGGTGG TTGTGGTGGTGGTGG-3′ [GR029A] | modulated proliferation | modulated proliferation | modulated proliferation | intense | modulated proliferation | formed this approximately 100 kDa complex | active
